Measurements published in US20220313780A1, “METHODS AND COMPOSITIONS FOR TREATING INFLAMMATORY CONDITIONS” (THE SCRIPPS RESEARCH INSTITUTE, priority 2019, published 2022).
No end group written: not given here.

Tested on: caspase 1
Assay: Caspase 1 activity assay in PMA-differentiated THP1 cells treated with LPS and ATP
Type: cell-based, human
Details: for anti-inflammatory activities relative to that of TR47: summary statement on exemplified TR47 fragments and variants
Method: THP1-null (THP1) cells were plated at a final concentration of 1×10^6/mL in 96 well plates and incubated with PMA (0.5 μM) for 3 hours 37° C. in supplemented RPMI. Media was subsequently changed every 24 hours for 3 days. Various subsets of wells were selected and cells were treated for 60 minutes at 37° C. in serum-free RPMI with: (A) APC (4 μg/mL), TR47 (50 μM-2 nM), scrTR47 (50 μM), SFLLRN (50 μM), TFLLRN (50 μM); (B) P3R (50 μM-500 nM), P3K (50 μM); (C) APC (4 or 1 μg/mL), TR47 (8 nM), P3R (500 nM) or TR47+P3R (8 nM and 500 nM, respectively); (D) TR47 (0-128 nM) (●)±P3R (500 nM) (□); (E) P3R (0-500 nM) (●)±TR47 (1 nM) (□). Following DPBS wash, cells were incubated with LPS (1 μg/mL) for 3 hours at 37° C. in serum-free RPMI. After a DPBS wash, cells were incubated with ATP (5 mM) in the presence or absence of 10 μM YVAD (caspase 1 inhibitor) or 2.5 μM ZVAD (pan-caspase inhibitor) for 45 minutes at 37° C., prior to performing the caspase 1 activity assay following manufacturer's directions measuring luminescence (relative luminescent units, RLU). (D & E) Experimental caspase 1 activity was normalized to YVAD (caspase 1 inhibitor) luminescence units. (A-E) Data points represent mean±S.D. of at least 3 independent experiments. *P<0.05 (vs. LPS+ATP); #P<0.05 (vs. LPS+ATP & APC, TR47 or P3R); **P<0.005 (vs. LPS+ATP & TR47+500 nM P3R); n.s. not significant.
THP1 cells were plated at a final concentration of 1×10^6/mL in 96 well plates and incubated with PMA (0.5 μM) for 3 hours 37° C. in supplemented RPMI. Media was subsequently changed every 24 hours for 3 days. Selected wells were treated with APC (4 μg/mL), (A) 50 μM or (B) 2 μM of P3R, P3Rm, P3R 51-65, P3R 51-59, P3R 54-59 or P3R 59-65 for 1 hour, washed with DPBS, and incubated with LPS (1 μg/mL) for 3 hours at 37° C. in serum-free RPMI. Cells were washed with DPBS and incubated with ATP (5 mM) in the presence or absence of 10 μM YVAD (caspase 1 inhibitor; C1i) or 2.5 μM ZVAD (pan-caspase inhibitor; pCi) for 45 minutes at 37° C., prior to performing the caspase 1 activity assay following manufacturer's directions measuring luminescence (relative luminescent units, RLU). (C) Diagram showing the PAR3 sequence, peptide sequences and relative (anti-inflammatory) activity. These include sequences of P3R (SEQ ID NO:4), P3Rm (SEQ ID NO:8), P3R 51-65 (SEQ ID NO:9), P3R 51-59 (SEQ ID NO:10), P3R 54-59 (SEQ ID NO:54) and P3R 59-65 (SEQ ID NO:55).
THP1 cells were plated at a final concentration of 1×10^6/mL in 96 well plates and incubated with PMA (0.5 μM) for 3 hours 37° C. in supplemented RPMI. Media was subsequently changed every 24 hours for 3 days. Selected wells were treated with APC (4 μg/mL), TR47, in (A) 9-mer (TR47 9-mer; NPNDKYEPF (SEQ ID NO:36)) or Ac-TR47 (Acylated TR47) at either 50 μM or 10 nM or (B) 50 μM of 16-mer-TR47, 8-mer-TR47, 6-mer-TR47, TR47 N−1, TR47 N−2, TR47 N−5, TR47AQ, TR47AD, TR47AA or TR48-54 for 1 hour, washed with DPBS, and incubated with LPS (1 μg/mL) for 3 hours at 37° C. in serum-free RPMI. Cells were washed with DPBS and incubated with ATP (5 mM) in the presence or absence of 10 μM YVAD (caspase 1 inhibitor; C1i) or 2.5 μM ZVAD (pan-caspase inhibitor; pCi) for 45 minutes at 37° C., prior to performing the caspase 1 activity assay following manufacturer's directions measuring luminescence (relative luminescent units, RLU). #P<0.001 (vs. LPS+ATP), **P<0.005 (vs. LPS+ATP), * (P<0.05 vs. LPS+ATP). (C) Diagram showing the PAR1 sequence, peptide sequences and relative (anti-inflammatory) activity. These include sequences of TR47 (SEQ ID NO:7), Ac-TR47 (SEQ ID NO:56), 16-mer-TR47 (SEQ ID NO:43), 9-mer-TR47 (SEQ ID NO:36), 8-mer-TR47 (SEQ ID NO:35), 6-mer-TR47 (SEQ ID NO:33), TR47 N−1 (SEQ ID NO:47), TR47 N−2 (SEQ ID NO:51), TR47 N−5 (SEQ ID NO:48), TR47AQ (SEQ ID NO:49), TR47AD (SEQ ID NO:52), TR47AA (SEQ ID NO:50) and TR48-54 (SEQ ID NO:53). […]

[1] = peptide 50 μM for 60 min before LPS (1 μg/mL) and ATP (5 mM), THP1 cells

CC(C)(O)c1coc(S(=O)(=O)NC(=O)Nc2c3c(cc4c2CCC4)CCC3)c1 [MCC950, reference compound]
caspase 1 activity (NLRP3 inhibitor MCC950 10 μM for 30 minutes after LPS, THP1-null cells treated with APC, TR47 or P3R): a significant reduction in caspase 1 activity across all treatments tested

APNDKYEPFWEDEEKNESGL [TR47ΔA]
caspase 1 activity [1]: similarly reduced caspase 1 activity | anti-inflammatory activities relative to that of TR47: maintain substantial anti-inflammatory activities relative to that of TR47

Ac-TR47: Acylated TR47 (N-terminus of TR47 acylated) (Ac-NPNDKYEPF; also: N-terminal acylation, acyl group not given here)
caspase 1 activity [1]: no reduction in caspase 1 activity was observed

FPFSALEGWTGATIT [P3R 51-65]
caspase-1 activity (PAR3 peptide 0 to 16 nM in the presence or absence of 1 nM P1(47-66)): only in the presence of 1 nM P1(47-66) was a significant reduction in caspase-1 activity seen | caspase 1 activity (peptide 50 μM for 60 min before LPS (1 μg/mL) and ATP (5 mM), THP1 cells, listed as P3(51-65)): alone is anti-inflammatory at relatively high concentrations | anti-inflammatory effect (caspase-1 activity) (peptide at 200 nM): neither the isolated PAR1-derived peptide nor the isolated PAR3-derived peptide had an any anti-inflammatory effect

GAPPNSFEEFPFS [P3Rm]
synergistic anti-inflammatory activity (caspase 1 activity) (P3Rm (0 or 16 nM) combined with TR47 (1 nM), FIG. 6A): synergy observed | caspase 1 activity (peptide 2 μM for 1 hour before LPS and ATP, THP1 cells): this effect was lost | caspase 1 activity [1]: a significant reduction in caspase 1 activity was observed

NDKYEPFWEDEEKNESGL [TR47 N−2]
caspase 1 activity [1]: a loss in inhibition of caspase 1 activity

NPNDKY [6-mer TR47]
caspase 1 activity [1]: lost its inhibitory activity

NPNDKYEP [8-mer TR47]
caspase 1 activity [1]: significantly reduced caspase 1 activity | anti-inflammatory activities relative to that of TR47: maintain substantive anti-inflammatory activities relative to that of TR47

NPNDKYEPF [9-mer]
caspase 1 activity [1]: reduced caspase 1 activity similar to the 20-mer TR47 | anti-inflammatory effect (caspase-1 activity) (peptide at 200 nM): neither the isolated PAR1-derived peptide nor the isolated PAR3-derived peptide had an any anti-inflammatory effect | anti-inflammatory effect (caspase-1 activity) (peptide at 500 nM): alone was anti-inflammatory | anti-inflammatory activities relative to that of TR47: maintain substantive anti-inflammatory activities relative to that of TR47

NPNDKYEPFWEDEEKN [16-mer TR47]
caspase 1 activity [1]: significantly reduced caspase 1 activity | anti-inflammatory activities relative to that of TR47: maintain substantive anti-inflammatory activities relative to that of TR47

P3R 54-59: fragment of PAR3-derived peptide P3R, residues 54-59 (SALEGW; UniProt O00254 54-59, looked up, fragment)
caspase 1 activity [1]: only partially reduced caspase 1 activity

P3R 59-65: fragment of PAR3-derived peptide P3R, residues 59-65 (WTGATIT; UniProt O00254 59-65, looked up, fragment)
caspase 1 activity [1]: only partially reduced caspase 1 activity

PNDKYEPFWEDEEKNESGL [TR47 N−1]
synergistic anti-inflammatory activity (caspase 1 activity) (TR47(N−1) (0 or 4 nM) combined with 500 nM P3R, FIG. 6B): synergy observed | caspase 1 activity [1]: still reduced caspase 1 activity | anti-inflammatory activities relative to that of TR47: maintain substantial anti-inflammatory activities relative to that of TR47

QPNDKYEPFWEDEEKNESGL [TR47ΔQ]
caspase 1 activity [1]: similarly reduced caspase 1 activity | anti-inflammatory activities relative to that of TR47: maintain substantial anti-inflammatory activities relative to that of TR47

SFLLRN [reference compound]
caspase 1 activity [1]: neither a scrambled TR47 nor the peptides, SFLLRN or TFLLRN which resemble the novel N-terminal amino acid sequence generated by thrombin's PAR1 cleavage at Arg41 had any effect on caspase 1 activity

TFLLRN (SFLLRN; UniProt P25116 42-47, looked up, fragment) [reference compound]
caspase 1 activity [1]: neither a scrambled TR47 nor the peptides, SFLLRN or TFLLRN which resemble the novel N-terminal amino acid sequence generated by thrombin's PAR1 cleavage at Arg41 had any effect on caspase 1 activity

TR48-54: truncated TR-peptide, removing one amino acid from the N-terminus and part of the C-terminus (FEEFPFS; UniProt O00254 48-54, looked up, fragment)
caspase 1 activity [1]: did not reduce caspase 1 activity

YEPFWEDEEKNESGL [TR47 N−5]
caspase 1 activity [1]: a reduction in caspase 1 activity was observed | anti-inflammatory activities relative to that of TR47: maintain substantial anti-inflammatory activities relative to that of TR47
